In US20240383856A1 (Zedira GmbH, priority 2021, published 2024):
pIC50: −log10 of the molar value.

Columns and labels:
[1] = Caco-2 permeability assay (CacoReady kit); type: in vitro ADME; conditions: human, Caco-2, Caco-2 barrier, CacoReady kit; above 1×10^−6 cm/s classified as permeable
Method in brief: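 Apparent permeability coefficients (Papp) were measured across Caco-2 cell barriers using a ready-to-use kit run per the supplier's protocol. Values serve as a predictor of oral/intestinal bioavailability.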

[2] = molecular target: T1, recombinant human transglutaminase 2 (Homo sapiens, UniProt P21980); assay: Transglutaminase assay (DCC-assay): incorporation of dansylcadaverine into dimethylcasein; type: biochemical; conditions: recombinant human TG2 10 nM; dansylcadaverine incorporation into dimethylcasein; read-out: IC50 TG2
T1 construct: purchased Zedira T022
T1 sequence (P21980 1-687): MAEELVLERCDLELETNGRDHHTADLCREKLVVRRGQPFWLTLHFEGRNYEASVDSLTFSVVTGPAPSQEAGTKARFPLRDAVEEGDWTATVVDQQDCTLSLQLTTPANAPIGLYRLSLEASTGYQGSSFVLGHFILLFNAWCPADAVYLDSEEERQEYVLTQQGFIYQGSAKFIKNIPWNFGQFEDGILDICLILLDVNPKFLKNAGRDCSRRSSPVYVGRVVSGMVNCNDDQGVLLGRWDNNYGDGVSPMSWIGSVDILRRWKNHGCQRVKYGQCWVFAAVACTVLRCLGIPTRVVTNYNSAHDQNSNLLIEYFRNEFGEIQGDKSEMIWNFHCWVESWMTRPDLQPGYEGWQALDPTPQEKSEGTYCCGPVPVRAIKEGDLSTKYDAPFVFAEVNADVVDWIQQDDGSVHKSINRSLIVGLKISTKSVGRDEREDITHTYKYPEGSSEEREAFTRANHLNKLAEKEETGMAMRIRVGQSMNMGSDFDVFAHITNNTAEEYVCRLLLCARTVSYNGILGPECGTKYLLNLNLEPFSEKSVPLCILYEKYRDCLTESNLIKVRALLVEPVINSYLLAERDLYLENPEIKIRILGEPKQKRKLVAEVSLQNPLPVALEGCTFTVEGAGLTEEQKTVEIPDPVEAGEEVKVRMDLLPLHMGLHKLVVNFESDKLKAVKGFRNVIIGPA
Method in brief: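 Recombinant human TG2 (10 nM final) incorporates dansylcadaverine into N,N-dimethylcasein. Reaction mix: 50 mM Tris-HCl, 10 mM CaCl2, 10 mM glutathione, 2.5% glycerol, 16.7 µM dansylcadaverine, 4 µM dimethylcasein, 200 mM NaCl, pH 8.0. Fluorescence (ex 330/em 500 nm) was followed 30 min at 37 °C; the 20–30 min slope, expressed as % of 2% DMSO control, gave IC50.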

[3] = logD by shake flask method (octanol / PBS pH 7.4, HPLC); type: physicochemical; conditions: octanol / PBS pH 7.4, shake flask
Method in brief: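 Shake-flask partition of compound between octanol and phosphate-buffered saline at pH 7.4, with each phase quantified by HPLC to give LogD.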

| Compound | Papp [1] [×10⁻⁶ cm/s] | pIC50 [2] | logD [3] |
| --- | --- | --- | --- |
| CNC(=O)C(=O)CC[C@H](NC(=O)c1sc(Cl)nc1Cl)C(=O)Nc1cccn(CC(=O)NC2C3CC4CC(C3)CC2C4)c1=O (stereo partly drawn) [II-17, (S)-2-(2,4-dichlorothiazole-5-carboxamido)-N1-(1-(2-(2-adamantylamino)-2-oxoethyl)-2-oxo-1,2-dihydropyridin-3-yl)-N6-methyl-5-oxohexanediamide] | 1 to 10 | 6.40 to 7.40 | 1 to 3 |
| CNC(=O)C(=O)CC[C@H](NC(=O)c1oc2ccccc2c1C)C(=O)Nc1cccn(CC23CC4CC(CC(Br)(C4)C2)C3)c1=O [II-109, (2S)-N1-(1-((3-bromo-1-adamantyl)methyl)-2-oxo-1,2-dihydropyridin-3-yl)-N6-methyl-2-(3-methylbenzofuran-2-carboxamido)-5-oxohexanediamide] | 1 to 10 | 6.40 to 7.40 | 3 to 5 |
| O=C(Cn1cccc(NC(=O)[C@H](CCC(=O)C(=O)NC2CCCCC2)NC(=O)c2cc3ccccc3nn2)c1=O)NC12CC(C1)C2 [II-181, (S)-N1-(1-(2-(bicyclo[1.1.1]pentan-1-ylamino)-2-oxoethyl)-2-oxo-1,2-dihydropyridin-3-yl)-2-(cinnoline-3-carboxamido)-N6-cyclohexyl-5-oxohexanediamide] | < 1 | 5.60 to 6.40 | 1 to 3 |
| NC(=O)C(=O)CC[C@H](NC(=O)c1cc2ccccc2o1)C(=O)Nc1cccn(CC(=O)N[C@@H]2C[C@@H]3CC[C@H]2C3)c1=O [II-148, (S)-2-(benzofuran-2-carboxamido)-N1-(1-(2-((1S,2R,4R)-bicyclo[2.2.1]heptan-2-ylamino)-2-oxoethyl)-2-oxo-1,2-dihydropyridin-3-yl)-5-oxohexanediamide] | 1 to 10 | > 7.40 | < 1 |
| CNC(=O)C(=O)CC[C@H](NC(=O)c1cc(Br)cs1)C(=O)Nc1cccn(CC(=O)NC2C3CC4CC(C3)CC2C4)c1=O (stereo partly drawn) [II-40, (S)-2-(4-bromothiophene-2-carboxamido)-N1-(1-(2-(2-adamantylamino)-2-oxoethyl)-2-oxo-1,2-dihydropyridin-3-yl)-N6-methyl-5-oxohexanediamide] | < 1 | > 7.40 | 3 to 5 |
| CNC(=O)C(=O)CC[C@H](NC(=O)c1cc(Cl)c(Cl)s1)C(=O)Nc1cccn(CC(=O)NC2C3CC4CC(C3)CC2C4)c1=O (stereo partly drawn) [II-49, (S)-2-(4,5-dichlorothiophene-2-carboxamido)-N1-(1-(2-(2-adamantylamino)-2-oxoethyl)-2-oxo-1,2-dihydropyridin-3-yl)-N6-methyl-5-oxohexanediamide] | 1 to 10 | > 7.40 | 3 to 5 |
| CNC(=O)C(=O)CC[C@H](NC(=O)c1snnc1C)C(=O)Nc1cccn(CC(=O)N[C@@H]2C[C@@H]3CC[C@H]2C3)c1=O [II-156, (S)-N1-(1-(2-((1S,2R,4R)-bicyclo[2.2.1]heptan-2-ylamino)-2-oxoethyl)-2-oxo-1,2-dihydropyridin-3-yl)-N6-methyl-2-(4-methyl-1,2,3-thiadiazole-5-carboxamido)-5-oxohexanediamide] | < 1 | 6.40 to 7.40 | < 1 |
| CNC(=O)C(=O)CC[C@H](NC(=O)c1cncnc1C)C(=O)Nc1cccn(CC(=O)NC2C3CC4CC2CC(C(=O)O)(C4)C3)c1=O (stereo partly drawn) [II-173, (S)-N1-(1-(2-(5-carboxy-2-aminoadamantane)-2-oxoethyl)-2-oxo-1,2-dihydropyridin-3-yl)-N6-methyl-2-(4-methylpyrimidine-5-carboxamido)-5-oxohexanediamide] | < 1 | 6.40 to 7.40 | < 1 |
| CNC(=O)C(=O)CC[C@H](NC(=O)c1snnc1C=O)C(=O)Nc1cccn(CC(=O)NC2C3CC4CC(C3)CC2C4)c1=O (stereo partly drawn) [II-205, (S)-2-(4-formyl-1,2,3-thiadiazole-5-carboxamido)-N1-(1-(2-(2-adamantylamino)-2-oxoethyl)-2-oxo-1,2-dihydropyridin-3-yl)-N6-methyl-5-oxohexanediamide] | < 1 | 6.40 to 7.40 | < 1 |
| CNC(=O)C(=O)CC[C@H](NC(=O)c1cc2cc(Br)ccc2s1)C(=O)Nc1cccn(CC(=O)NC2C3CC4CC(C3)CC2C4)c1=O (stereo partly drawn) | 1 to 10 | > 7.40 | 3 to 5 |
| CNC(=O)C(=O)CC[C@H](NC(=O)c1nc(Br)sc1Br)C(=O)Nc1cccn(CC(=O)NC2C3CC4CC(C3)CC2C4)c1=O (stereo partly drawn) [II-33, (S)-2-(2,5-dibromothiazole-4-carboxamido)-N1-(1-(2-(2-adamantylamino)-2-oxoethyl)-2-oxo-1,2-dihydropyridin-3-yl)-N6-methyl-5-oxohexanediamide] | > 10 | 6.40 to 7.40 | 1 to 3 |
| CNC(=O)C(=O)CC[C@H](NC(=O)c1oc2ccccc2c1C)C(=O)Nc1cccn(CC(=O)NC23CC(C2)C3)c1=O [II-167, (S)-N1-(1-(2-(bicyclo[1.1.1]pentan-1-ylamino)-2-oxoethyl)-2-oxo-1,2-dihydropyridin-3-yl)-N6-methyl-2-(3-methylbenzofuran-2-carboxamido)-5-oxohexanediamide] | 1 to 10 | > 7.40 | < 1 |
| CNC(=O)C(=O)CC[C@H](NC(=O)c1ccn(C)n1)C(=O)Nc1cccn(CC(=O)NC2C3CC4CC(C3)CC2C4)c1=O (stereo partly drawn) [II-138, (S)-N1-(1-(2-(2-adamantylamino)-2-oxoethyl)-2-oxo-1,2-dihydropyridin-3-yl)-N6-methyl-2-(1-methyl-1H-pyrazole-3-carboxamido)-5-oxohexanediamide] | < 1 | 5.60 to 6.40 | < 1 |
| CNC(=O)C(=O)CC[C@H](NC(=O)c1nn[nH]n1)C(=O)Nc1cccn(CC(=O)NC2C3CC4CC(C3)CC2C4)c1=O (stereo partly drawn) [II-52, (S)-N1-(1-(2-(2-adamantylamino)-2-oxoethyl)-2-oxo-1,2-dihydropyridin-3-yl)-N6-methyl-5-oxo-2-(2H-tetrazole-5-carboxamido)hexanediamide] | < 1 | 5.60 to 6.40 | < 1 |
| CNC(=O)C(=O)CC[C@H](NC(=O)c1cc(C#N)cn1C)C(=O)Nc1cccn(CCCC23CC4CC(CC(C4)C2)C3)c1=O [II-165] | 1 to 10 | 5.60 to 6.40 | 3 to 5 |
| CNC(=O)C(=O)CC[C@H](NC(=O)c1noc(C)n1)C(=O)Nc1cccn(CC(=O)NC23CC(C2)C3)c1=O [II-197, (S)-N1-(1-(2-(bicyclo[1.1.1]pentan-1-ylamino)-2-oxoethyl)-2-oxo-1,2-dihydropyridin-3-yl)-N6-methyl-2-(5-methyl-1,2,4-oxadiazole-3-carboxamido)-5-oxohexanediamide] | < 1 | 5.60 to 6.40 | < 1 |
| CNC(=O)C(=O)CC[C@H](NC(=O)c1oc2ccccc2c1C)C(=O)Nc1cccn(CC(=O)NC23CCC(C2)C3)c1=O [II-169, (S)-N1-(1-(2-(bicyclo[2.1.1]hexan-1-ylamino)-2-oxoethyl)-2-oxo-1,2-dihydropyridin-3-yl)-N6-methyl-2-(3-methylbenzofuran-2-carboxamido)-5-oxohexanediamide] | 1 to 10 | > 7.40 | < 1 |
| CC1(C)[C@@H]2CC[C@@]1(C)[C@@H](NC(=O)Cn1cccc(NC(=O)[C@H](CCC(=O)C(N)=O)NC(=O)c3cc4ccccc4o3)c1=O)C2 [II-150, (S)-2-(benzofuran-2-carboxamido)-5-oxo-N1-(2-oxo-1-(2-oxo-2-((1R,2S,4R)-1,7,7-trimethylbicyclo[2.2.1]heptan-2-ylamino)ethyl)-1,2-dihydropyridin-3-yl)hexanediamide] | 1 to 10 | 6.40 to 7.40 | 1 to 3 |
| CNC(=O)C(=O)CC[C@H](NC(=O)c1cc(Br)c(Cl)s1)C(=O)Nc1cccn(CC(=O)NC2C3CC4CC(C3)CC2C4)c1=O (stereo partly drawn) [II-44, (S)-2-(4-bromo-5-chlorothiophene-2-carboxamido)-N1-(1-(2-(2-adamantylamino)-2-oxoethyl)-2-oxo-1,2-dihydropyridin-3-yl)-N6-methyl-5-oxohexanediamide] | 1 to 10 | > 7.40 | 3 to 5 |
| CNC(=O)C(=O)CC[C@H](NC(=O)c1ccc2c(c1)CC(=O)NC2)C(=O)Nc1cccn(CC(=O)NC2(C(=O)O)C3CC4CC2CC(C(F)(F)F)(C4)C3)c1=O (stereo partly drawn) [II-186, (S)-N1-(1-(2-(2-carboxy-2-amino-5-(trifluoromethyl)adamantane)-2-oxoethyl)-2-oxo-1,2-dihydropyridin-3-yl)-N6-methyl-5-oxo-2-(3-oxo-1,2,3,4-tetrahydroisoquinoline-6-carboxamido)hexanediamide] | < 1 | 5.60 to 6.40 | < 1 |
